Like-named read-outs stand apart in the source and are kept apart here.
Columns and labels:
MCF-7 = conditions: literature value ref 43; read-out: cytotoxicity (IC50) MCF-7; cited from earlier work
MDA-MB-231 = conditions: literature value ref 44; read-out: cytotoxicity (IC50) MDA-MB-231; cited from earlier work
ct-DNA = conditions: cited from earlier work
ctDNA = assay: Circular dichroism / induced circular dichroism with calf thymus DNA; conditions: DNA
Protocol: Calf thymus (ct) DNA (Merck®) was used to perform the circular dichroism assay to detect conformational changes in the ctDNA induced by the compounds. CD spectral data was collected on a Chirascan™ V100 (Applied Photophysics) spectropolarimeter equipped with a large area Avalanche photodiodes detector and computer-controlled thermoelectrical cell holder using a 1 cm path length quartz cuvette. CD spectra of ctDNA in the absence and presence of different concentrations of 11Cl were recorded at wavelengths ranging from 320 to 190 nm under constant nitrogen flush at 25 °C. For each CD spectrum, the number of scans was set to 5, and spectral data were collected at 0.1 ms intervals. Additionally, methyl green (MG) and 4′,6-diamidino-2-phenylindole (DAPI), and propidium iodide (PI) were analyzed as minor and major groove binders and as an intercalator, respectively, to help identify the binding mode of 11Cl to DNA. Samples were prepared in 10 mM Tris-HCl buffer (pH 7.6) with 1 mM EDTA. The concentration of ctDNA was fixed at 100 μM (concerning base pairs) and the ctDNA to 11Cl ratio was varied between 0 and 1. The samples were incubated for 24 h at 37 °C and then analyzed in the CD spectropolarimeter.

[1] = tested on: 14-mer ssDNA (DNA, single strand) ATACATGGTACATA; assay: ESI tandem mass spectrometry; conditions: MilliQ water pH 7, 37 °C, 24 h; compound:DNA 3:1 mixed; adduct seen as [Ru(toluene)(PPh3)]2+; non-covalent
[2] = tested on: 6-mer dsDNA (DNA, duplex) AGGCAG/CTGCCT; assay: ESI tandem mass spectrometry; conditions: MilliQ water pH 7, 37 °C, 3:1 mixed; 24 h or 72 h (ESI); non-covalent

SMILES: N.N.O=C([O-])C1(C(=O)[O-])CCC1.[Pt+2] [carboplatin]
- IC50 (MCF-7): 27.3 µM
- IC50 (MDA-MB-231): 15.4 ± 3.3 µM

SMILES: N=C(N)c1ccc(-c2cc3ccc(C(=N)N)cc3[nH]2)cc1 [DAPI]
- Kprobe, binding constant of the probe to DNA (ct-DNA; used in eqn (4) ref 92): 5e+06 M⁻¹
- CD band 268 nm, intensity change (ctDNA; 268 nm part of the 268−280 nm band): Hyperchromic
- CD band 280 nm, intensity change (ctDNA; 280 nm part of the 268−280 nm band): Hypochromic
- CD band 210 nm, intensity change (ctDNA; 24 h, 37 °C): Hypochromic
- CD band 210 nm, wavelength shift (ctDNA; 24 h, 37 °C): Red
- CD band 220 nm (hydrogen bonding), intensity change (ctDNA; 24 h, 37 °C): Hyperchromic
- CD band 220 nm (hydrogen bonding), wavelength shift (ctDNA; 24 h, 37 °C): Blue shift
- CD band 246 nm (helicity), intensity change (ctDNA; 24 h, 37 °C): Unchanged
- CD band 246 nm (helicity), wavelength shift (ctDNA; 24 h, 37 °C): Unchanged
- CD band 268−280 nm (base-pair stacking interactions), wavelength shift (ctDNA; 24 h, 37 °C): Unchanged

SMILES: Cc1ccccc1.[Cl-].[Ru+2].c1ccc(P(c2ccccc2)c2ccccc2)cc1.c1ccc(P(c2ccccc2)c2ccccc2)cc1
- binding [1]: yes
- binding [2]: yes

SMILES: CN(C)c1ccc(C(=C2C=CC(=[N+](C)C)C=C2)c2ccc([N+](C)(C)C)cc2)cc1.[Cl-].[Cl-] [MG, methyl green]
- Kprobe, binding constant of the probe to DNA (ct-DNA; used in eqn (4) ref 91): 900000 M⁻¹
- CD band 210 nm, intensity change (ctDNA; 24 h, 37 °C): Hypochromic
- CD band 210 nm, wavelength shift (ctDNA; 24 h, 37 °C): Blue
- CD band 220 nm (hydrogen bonding), intensity change (ctDNA; 24 h, 37 °C): Hyperchromic
- CD band 220 nm (hydrogen bonding), wavelength shift (ctDNA; 24 h, 37 °C): Blue shift
- CD band 246 nm (helicity), intensity change (ctDNA; 24 h, 37 °C): Hypochromic
- CD band 246 nm (helicity), wavelength shift (ctDNA; 24 h, 37 °C): Unchanged
- CD band 268−280 nm (base-pair stacking interactions), intensity change (ctDNA; 24 h, 37 °C): Unchanged
- CD band 268−280 nm (base-pair stacking interactions), wavelength shift (ctDNA; 24 h, 37 °C): Unchanged

— paper PMC10442743 (Dalton Transactions (Cambridge, England : 2003), 2023)
